According to patent US9540348B2, “Imidazole-1-yl pyrimidine derivatives, or pharmacutically acceptable salt thereof, and pharmaceutic composition comprising the same as an active ingredient” (Industry-University Cooperation Foundation Hanyang …, priority 2015, dated 2017):
Entries after “also recorded” stand apart in the source; their conditions may differ.

What was measured:
[1] = tested on: most other kinases except cKit (KIT) and p38a (MAPK14); test: Kinase panel screening, summary for the other kinases; assay type: biochemical; details: 10 μM concentration
Experimental: (§1) To Compound 10c of Example 23, kinase panel screening was carried out to 32 kinds of kinases in 10 μM concentration and the results are listed in the following Table 2.

[2] = tested on: U937 human leukemic monocyte lymphoma cell line; test: Antiproliferative activity to U937 human leukemic monocyte lymphoma cell line; assay type: cell-based
Experimental: The antiproliferative activity of the compounds of Examples to A375P human melanoma cell line and U937 human leukemic monocyte lymphoma cell line are evaluated and listed in the following Table 1.

BRAF (V600E) = BRAF (V600E) (Homo sapiens, UniProt P15056, V600E); test: Enzymatic activity (IC50) to kinases; assay type: biochemical; details: read-out: IC50 (Unit: nM) BRAF (V600E)
Sequence of BRAF (V600E) (P15056 whole entry V600E): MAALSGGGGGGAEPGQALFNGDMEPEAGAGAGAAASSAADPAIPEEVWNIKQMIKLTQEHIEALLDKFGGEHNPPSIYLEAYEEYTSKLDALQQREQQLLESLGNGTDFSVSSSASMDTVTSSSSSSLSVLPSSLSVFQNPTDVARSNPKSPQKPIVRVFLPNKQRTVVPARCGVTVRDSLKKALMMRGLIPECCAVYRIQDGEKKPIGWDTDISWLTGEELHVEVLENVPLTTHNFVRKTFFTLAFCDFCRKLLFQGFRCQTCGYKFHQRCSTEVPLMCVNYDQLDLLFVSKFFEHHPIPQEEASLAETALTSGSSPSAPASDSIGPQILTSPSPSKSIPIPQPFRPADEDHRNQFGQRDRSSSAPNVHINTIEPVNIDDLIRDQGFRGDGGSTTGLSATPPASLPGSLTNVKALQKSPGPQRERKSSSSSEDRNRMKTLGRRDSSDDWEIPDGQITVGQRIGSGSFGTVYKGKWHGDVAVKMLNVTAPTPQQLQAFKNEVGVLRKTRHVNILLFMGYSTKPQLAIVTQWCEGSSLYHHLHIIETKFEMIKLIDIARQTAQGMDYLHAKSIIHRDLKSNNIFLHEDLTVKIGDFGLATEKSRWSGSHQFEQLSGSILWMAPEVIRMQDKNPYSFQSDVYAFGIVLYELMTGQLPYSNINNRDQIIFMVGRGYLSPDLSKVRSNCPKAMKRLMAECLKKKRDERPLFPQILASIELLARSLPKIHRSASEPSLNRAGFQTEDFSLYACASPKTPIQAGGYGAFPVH

SYK = SYK (Homo sapiens, UniProt P43405); test: Kinase panel screening; assay type: biochemical; details: 10 μM concentration; read-out: Inhibition Rate (Unit: %) SYK
Experimental: as §1

MEK1 = MEK1 (Homo sapiens, UniProt Q02750); test: Kinase panel screening; assay type: biochemical; details: 10 μM concentration; read-out: Inhibition Rate (Unit: %) MEK1
Sequence of MEK1 (Q02750 whole entry, species assumed): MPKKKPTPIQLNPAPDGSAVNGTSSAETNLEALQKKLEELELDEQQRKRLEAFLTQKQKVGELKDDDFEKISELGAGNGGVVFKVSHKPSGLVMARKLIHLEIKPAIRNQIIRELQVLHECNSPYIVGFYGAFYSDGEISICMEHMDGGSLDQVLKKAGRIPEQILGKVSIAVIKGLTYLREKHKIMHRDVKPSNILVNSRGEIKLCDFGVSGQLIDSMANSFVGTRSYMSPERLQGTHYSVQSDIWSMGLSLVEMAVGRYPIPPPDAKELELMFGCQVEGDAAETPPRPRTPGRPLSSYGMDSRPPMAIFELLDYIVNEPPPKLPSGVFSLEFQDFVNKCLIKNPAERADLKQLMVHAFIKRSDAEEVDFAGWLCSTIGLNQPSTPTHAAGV
Experimental: as §1

PLK1 = PLK1 (Homo sapiens, UniProt P53350); test: Kinase panel screening; assay type: biochemical; details: 10 μM concentration; read-out: Inhibition Rate (Unit: %) PLK1
Sequence of PLK1 (P53350 whole entry, species assumed): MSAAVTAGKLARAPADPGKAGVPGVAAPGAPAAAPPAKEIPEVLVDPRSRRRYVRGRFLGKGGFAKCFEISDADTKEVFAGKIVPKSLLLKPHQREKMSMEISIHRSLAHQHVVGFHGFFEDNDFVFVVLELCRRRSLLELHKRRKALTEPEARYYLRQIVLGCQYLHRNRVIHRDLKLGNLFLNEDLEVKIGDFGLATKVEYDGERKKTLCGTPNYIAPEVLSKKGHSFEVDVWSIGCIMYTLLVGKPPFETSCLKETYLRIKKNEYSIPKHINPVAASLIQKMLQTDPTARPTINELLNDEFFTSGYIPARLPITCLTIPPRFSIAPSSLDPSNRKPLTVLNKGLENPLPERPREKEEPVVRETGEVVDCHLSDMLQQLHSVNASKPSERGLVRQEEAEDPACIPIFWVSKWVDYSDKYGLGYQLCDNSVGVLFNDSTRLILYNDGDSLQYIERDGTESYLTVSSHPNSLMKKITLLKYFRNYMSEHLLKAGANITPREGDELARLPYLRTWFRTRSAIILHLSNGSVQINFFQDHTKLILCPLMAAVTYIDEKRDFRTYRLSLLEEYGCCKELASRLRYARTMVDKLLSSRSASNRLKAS
Experimental: as §1

BTK = BTK (Homo sapiens, UniProt Q06187); test: Kinase panel screening; assay type: biochemical; details: 10 μM concentration; read-out: Inhibition Rate (Unit: %) BTK
Sequence of BTK (Q06187 whole entry, species assumed): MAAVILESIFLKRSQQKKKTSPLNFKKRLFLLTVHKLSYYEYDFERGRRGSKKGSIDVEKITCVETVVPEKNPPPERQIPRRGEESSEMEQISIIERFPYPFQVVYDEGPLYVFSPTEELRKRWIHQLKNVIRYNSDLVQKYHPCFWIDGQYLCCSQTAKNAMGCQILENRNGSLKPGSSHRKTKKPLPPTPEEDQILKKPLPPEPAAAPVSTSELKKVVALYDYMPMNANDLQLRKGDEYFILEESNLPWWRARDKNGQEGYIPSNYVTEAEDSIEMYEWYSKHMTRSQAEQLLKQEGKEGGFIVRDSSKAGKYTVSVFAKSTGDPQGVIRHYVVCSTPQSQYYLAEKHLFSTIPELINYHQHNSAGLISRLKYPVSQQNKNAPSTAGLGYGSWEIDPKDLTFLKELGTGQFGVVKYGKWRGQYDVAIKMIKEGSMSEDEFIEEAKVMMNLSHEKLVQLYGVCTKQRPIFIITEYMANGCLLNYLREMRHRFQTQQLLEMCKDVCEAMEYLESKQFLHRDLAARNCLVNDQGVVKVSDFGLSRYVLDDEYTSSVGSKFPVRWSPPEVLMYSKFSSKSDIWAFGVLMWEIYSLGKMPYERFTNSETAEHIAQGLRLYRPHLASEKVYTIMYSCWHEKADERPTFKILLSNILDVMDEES
Experimental: as §1

wild-type BRAF = wild-type BRAF (Homo sapiens, UniProt P15056); test: Enzymatic activity (IC50) to kinases; assay type: biochemical; details: read-out: IC50 (Unit: nM) BRAF
Sequence of wild-type BRAF (P15056 whole entry): as the sequence (P15056 whole entry V600E) above, with E600V counted along it

P38a/MAPK14 = P38a/MAPK14 (Homo sapiens, UniProt Q16539); test: Enzymatic activity (IC50) to kinases; assay type: biochemical; details: read-out: IC50 (Unit: nM) P38a/MAPK14
Sequence of P38a/MAPK14 (Q16539 whole entry): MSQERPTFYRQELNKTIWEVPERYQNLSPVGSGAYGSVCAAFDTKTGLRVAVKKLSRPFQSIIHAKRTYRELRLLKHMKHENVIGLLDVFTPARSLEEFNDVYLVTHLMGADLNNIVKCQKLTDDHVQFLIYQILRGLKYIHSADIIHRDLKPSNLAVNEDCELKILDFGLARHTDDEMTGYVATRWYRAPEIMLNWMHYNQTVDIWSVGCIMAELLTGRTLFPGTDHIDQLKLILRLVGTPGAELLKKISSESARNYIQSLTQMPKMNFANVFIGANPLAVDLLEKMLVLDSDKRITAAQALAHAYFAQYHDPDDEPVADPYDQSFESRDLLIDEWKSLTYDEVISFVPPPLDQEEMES

In the case of `C[C@H](O)CNc1nccc(-n2ccnc2Cc2cccc(NC(=O)Nc3ccc(C(F)(F)F)c(Cl)c3)c2)n1` [Example 23, (S)-1-(3-chloro-4-(trifluoromethyl)phenyl)-3-(3-((1-(2-((2-hydroxypropyl)amino)pyrimidin-4-yl)-1H-imidazol-2-yl)methyl)phenyl)urea], the “inhibition rate to most other kinases” value [1] is reported as “less than 30%”, the “potency against U937, in words” value ([2]; U937 cell line, comparison with Sorafenib) is reported as “large potencies; also recorded: better potencies than Sorafenib” and the GI50 ([2]; U-937, U937 human leukemic monocyte lymphoma cell line, read-out: U937 (GI50, Unit: μM)) is reported as 2.73 µM. It also gave an IC50 (BRAF (V600E)) of 38.3 nM, an inhibition at 10 µM (SYK) of 0% and an inhibition at 10 µM (MEK1) of 0%. It also gave an inhibition at 10 µM (PLK1) of 9.9%, an inhibition at 10 µM (BTK) of 0% and an IC50 (wild-type BRAF) of 186 nM. It also gave an IC50 (P38a/MAPK14) of 571 nM.
